According to paper PMC10979003, “Development and crystal structures of a potent second-generation dual degrader of BCL-2 and BCL-xL” (Nature Communications, 2024):

What was measured:
[1] = biological target: T1, VCB/PROTAC/BCL-2 ternary complex (Homo sapiens, UniProt P10415+P40337); assay: AlphaLISA ternary complex assay VCB/PROTAC/BCL-2; format: binding; conditions: cell-free AlphaLISA
T1 construct: BCL-xL (aa 2-212) and BCL-2 (aa 1-207) transformed cells were grown in LB broth; GST (on the VCB complex); made in house; host or cells: E. coli BL21 (DE3) codon plus (stated for the BCL-2 construct)
Protocol: Assays were performed at room temperature. All reagents were diluted in assay buffer of 25 mM HEPES, pH 7.5, 150 mM NaCl, 0.1% BSA, and 0.005% tween 20. To a 96-well PCR plate (VWR, Cat. No. 82006-636) were added 10 μL self-made 6×His tagged BCL-xL (100 nM) or BCL-2 (150 nM), 10 μL series diluted compounds solution (4× dilution) and 10 μL of self-made GST-VCB (100 nM). After incubating at room temperature for 15 min, 5 µL of alpha glutathione-donor beads (160 μg/mL, PerkinElmer, Cat. No. 6765300) and 5 µL of anti-6×His acceptor beads (160 μg/mL, PerkinElmer, Cat. No. AL128M) to each well and incubated for additional 45 min in the dark before being transferred to two adjacent wells (17 µL each) of 384-well white OptiPlate (PerkinElmer, Cat. No. 6008280). The luminescence signal was detected on a Biotek’s Synergy Neo2 multimode plate reader installed with an AphaScreen filter cube. Intensity values were plotted in Graphpad Prism (9.2.0) with PROTAC concentration values represented on a log10 scale.

HiBiT-BCL-xL/HaloTag-VHL = biological target: T2, HiBiT-BCL-xL/HaloTag-VHL (Homo sapiens, UniProt P40337+Q07817); assay: NanoBRET ternary complex formation assay in 293T cells, HiBiT-BCL-xL and HaloTag-VHL; format: cell-based; conditions: 4 h, MG132 pretreatment
T2 construct: full-length BCL-xL and BCL-2 were expressed in cells for the nanoBRET assay; host or cells: 293T
Protocol: (§1) Plasmids HaloTag-VHL (Cat. No. CS1679C155) and CMV HiBiT (Cat. No. CS1956B03) were purchased from Promega. HiBiT-BCL-xL and HiBiT-BCL-2 were constructed previously. 293T cells (8 × 10^5 cells/well in a 6-well plate) were transfected with Lipofectamine (Life Technologies) and 1 μg HaloTag-VHL, 20 ng HiBiT-BCL-xL and 20 ng LgBiT or 1 μg HaloTag-VHL, 20 ng HiBiT-BCL-2 and 20 ng LgBiT. After 48 h, 2 × 10^4 transfected cells were seeded into each well of white 96-well tissue culture plates in Gibco™ Opti-MEM™ I Reduced Serum Medium, No Phenol Red (Cat. No. 11-058-021, Fisher) containing 4% FBS with or without HaloTag NanoBRET 618 Ligand (Cat. No. PRN1662, Promega) and incubated overnight at 37 °C, 5% CO2. […] After treatment, NanoBRET Nano-Glo Substrate (cat. no. N1662, Promega) was added into the medium, and the contents were mixed by shaking the plate for 30 s before measuring donor and acceptor signals on Biotek plate reader. Dual-filtered luminescence was collected with a 450/50 nm bandpass filter (donor, NanoBiT-BCL-XL protein or NanoBiT-BCL-2 protein) and a 610-nm longpass filter (acceptor, HaloTag NanoBRET ligand) using an integration time of 0.5 s. mBRET ratios were calculated following the NanoBRET™ Nano-Glo® Detection System (Cat. No. N1662, Promega).

HiBiT-BCL-2/HaloTag-VHL = biological target: T3, HiBiT-BCL-2/HaloTag-VHL (Homo sapiens, UniProt P10415+P40337); assay: NanoBRET ternary complex formation assay in 293T cells, HiBiT-BCL-2 and HaloTag-VHL; format: cell-based; conditions: 4 h, MG132 pretreatment
T3 construct: full-length BCL-xL and BCL-2 were expressed in cells for the nanoBRET assay; host or cells: 293T
Protocol: as §1

BCL-2 E114A Q118A = biological target: T4, BCL-2 E114A Q118A (Homo sapiens, UniProt P10415, E114A/Q118A); assay: AlphaScreen binary binding, BCL-2 E114A Q118A; conditions: mean ± s.d., n=3
T4 construct: BCL-xL (aa 2-212) and BCL-2 (aa 1-207) transformed cells were grown in LB broth; made in house; host or cells: E. coli BL21 (DE3) codon plus
Protocol: (§2) To test the binary/ternary binding affinities of compounds to BCL-2/BCL-xL, AlphaScreen displacement binding assay was performed to test the capabilities of testing compounds to displace a Biotin-tagged Bim (Biotin-[…]) or Bad (Biotin-[…]) from BCL-2 or BCL-xL for BCL-2 and BCL-xL binding affinities, respectively. All reagents were diluted in assay buffer of 25 mM HEPES, pH 7.5, 150 mM NaCl, 0.1% BSA, and 0.005% tween 20 prior incubation. To a 96-well PCR plate (VWR, Cat. No. 82006-636) was added 10 μL Biotin-tagged Bim (15 nM for WT or 50 nM for mutants) or Bad (15 nM for WT or 50 nM for mutants), 10 μL series diluted compounds solution (2 or 3 or 4× dilution), and 10 μL self-made 6×His tagged BCL-2 WT or mutants (25 nM WT or 50 nM mutants) or 10 μL self-made BCL-xL WT and mutants (10 nM WT or 50 nM mutants). […] The luminescence signal was detected on a Biotek’s Synergy Neo2 multimode plate reader installed with an AphaScreen filter cube. The Ki values of each compounds were calculated by fitting data into the “Binding-competitive, One site-Fit Ki” function in GraphPad Prism (9.2.0) based on concentrations of Biotin–peptide used and experimentally determined Kd values of each 6×His protein &&&and Biotin–Peptide pair.

BCL-xL R103A/D107A = biological target: T5, BCL-xL R103A/D107A (Homo sapiens, UniProt Q07817, D107A/R103A); assay: AlphaScreen binary binding, BCL-xL R103A/D107A; conditions: mean ± s.d., n=3
T5 construct: BCL-xL (aa 2-212) and BCL-2 (aa 1-207) transformed cells were grown in LB broth; SMT3 (N); made in house; host or cells: E. coli BL21 (DE3) codon plus
Protocol: as §2

T2 sequence (Q07817 whole entry): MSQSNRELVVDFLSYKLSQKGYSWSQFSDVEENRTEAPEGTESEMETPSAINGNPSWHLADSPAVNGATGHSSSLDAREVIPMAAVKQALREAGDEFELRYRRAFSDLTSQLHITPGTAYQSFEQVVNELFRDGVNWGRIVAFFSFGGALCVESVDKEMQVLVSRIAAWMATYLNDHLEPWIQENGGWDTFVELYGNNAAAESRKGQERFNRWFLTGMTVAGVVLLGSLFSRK
T2 sequence (Q15369 whole entry, further chain): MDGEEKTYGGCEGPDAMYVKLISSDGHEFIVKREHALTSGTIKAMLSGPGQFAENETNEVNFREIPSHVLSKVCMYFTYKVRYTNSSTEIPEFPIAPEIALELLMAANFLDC
T2 sequence (Q15370 whole entry, further chain): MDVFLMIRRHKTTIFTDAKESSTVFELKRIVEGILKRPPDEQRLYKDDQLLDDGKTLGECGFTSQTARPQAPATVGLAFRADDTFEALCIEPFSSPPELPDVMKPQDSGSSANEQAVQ
T2 sequence (P40337 whole entry): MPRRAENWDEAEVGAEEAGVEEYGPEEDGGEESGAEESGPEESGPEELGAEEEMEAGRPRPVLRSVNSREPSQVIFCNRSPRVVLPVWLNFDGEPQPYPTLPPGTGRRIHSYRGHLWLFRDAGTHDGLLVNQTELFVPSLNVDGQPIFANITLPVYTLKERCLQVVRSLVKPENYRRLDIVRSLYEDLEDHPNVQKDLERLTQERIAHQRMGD
T1 sequence (Q15370 whole entry, the tested form may be a part): as the sequence (Q15370 whole entry, further chain) above
T1 sequence (Q15369 17-112, further chain): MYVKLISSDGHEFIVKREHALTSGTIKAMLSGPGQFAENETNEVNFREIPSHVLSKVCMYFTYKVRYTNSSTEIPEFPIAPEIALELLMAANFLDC
T1 sequence (P40337 54-213): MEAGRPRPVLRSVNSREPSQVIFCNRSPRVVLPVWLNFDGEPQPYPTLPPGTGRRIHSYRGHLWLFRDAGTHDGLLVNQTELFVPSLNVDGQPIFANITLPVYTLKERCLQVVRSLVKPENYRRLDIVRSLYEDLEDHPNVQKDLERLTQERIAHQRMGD
T1 sequence (P10415 1-207): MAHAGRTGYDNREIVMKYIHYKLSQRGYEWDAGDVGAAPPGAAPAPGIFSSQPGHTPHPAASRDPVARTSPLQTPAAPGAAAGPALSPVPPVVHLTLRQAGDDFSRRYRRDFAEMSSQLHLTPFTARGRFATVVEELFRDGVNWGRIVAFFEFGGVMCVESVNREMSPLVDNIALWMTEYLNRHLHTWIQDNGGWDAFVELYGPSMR
T5 sequence (Q07817 2-212 R103A/D107A): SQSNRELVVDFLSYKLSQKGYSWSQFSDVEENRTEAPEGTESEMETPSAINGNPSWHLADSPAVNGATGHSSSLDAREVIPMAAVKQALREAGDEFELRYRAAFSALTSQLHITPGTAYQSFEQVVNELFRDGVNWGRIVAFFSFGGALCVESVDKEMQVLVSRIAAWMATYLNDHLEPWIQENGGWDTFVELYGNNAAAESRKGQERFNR
T3 sequence (P10415 whole entry): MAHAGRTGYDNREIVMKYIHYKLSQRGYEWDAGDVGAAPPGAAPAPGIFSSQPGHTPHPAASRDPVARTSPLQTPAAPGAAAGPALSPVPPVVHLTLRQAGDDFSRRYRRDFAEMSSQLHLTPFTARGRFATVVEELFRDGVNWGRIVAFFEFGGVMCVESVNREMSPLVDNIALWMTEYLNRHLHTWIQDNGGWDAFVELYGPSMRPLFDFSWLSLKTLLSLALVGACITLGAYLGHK
T3 sequence (P40337 whole entry): as the sequence (P40337 whole entry) above
T3 sequence (Q15370 whole entry, further chain): as the sequence (Q15370 whole entry, further chain) above
T3 sequence (Q15369 whole entry, further chain): as the sequence (Q15369 whole entry, further chain) above
T4 sequence (P10415 1-207 E114A/Q118A): as the sequence (P10415 1-207) above, with E114A, Q118A counted along it

Structure (SMILES)	Ternary complex formation with BCL-2 (comparison with 753b) [1]	Cellular ternary complex formation with BCL-xL (comparison) (HiBiT-BCL-xL/HaloTag-VHL)	Cellular ternary complex formation with BCL-2 (comparison) (HiBiT-BCL-2/HaloTag-VHL)	Ki (BCL-2 E114A Q118A) [nM]	Ki (BCL-xL R103A/D107A) [nM]
Cc1ncsc1-c1ccc([C@H](C)NC(=O)[C@@H]2C[C@@H](O)CN2C(=O)[C@@H](NC(=O)CN2CCN(CC(=O)N3CCN(C[C@]4(C)CCC(c5ccc(Cl)cc5)=C(CN5CCN(c6ccc(C(=O)NS(=O)(=O)c7ccc(N[C@H](CCN8C[C@@H]9C[C@H]8CO9)CSc8ccccc8)c(S(=O)(=O)C(F)(F)F)c7)cc6)CC5)C4)CC3)CC2)C(C)(C)C)cc1 [WH244]	tighter complex	significantly lower compound concentration than 753b	modestly better than 753b	9.6 ± 0.7	–
Cc1ncsc1-c1ccc(C(C)NC(=O)C2CC(O)CN2C(=O)C(NC(=O)CCCCCCC(=O)N2CCN(CC3(C)CCC(c4ccc(Cl)cc4)=C(CN4CCN(c5ccc(C(=O)NS(=O)(=O)c6ccc(NC(CCN7CCOCC7)CSc7ccccc7)c(S(=O)(=O)C(F)(F)F)c6)cc5)CC4)C3)CC2)C(C)(C)C)cc1 (centres unmarked) [753b]	–	–	–	–	36.7 ± 3
